In publication PMC9197583 (Chemical communications (Cambridge, England), 2022):

Biological target: T1, NrtA (Synechocystis sp. PCC 6803, UniProt P73452)
T1 sequence (P73452 30-446): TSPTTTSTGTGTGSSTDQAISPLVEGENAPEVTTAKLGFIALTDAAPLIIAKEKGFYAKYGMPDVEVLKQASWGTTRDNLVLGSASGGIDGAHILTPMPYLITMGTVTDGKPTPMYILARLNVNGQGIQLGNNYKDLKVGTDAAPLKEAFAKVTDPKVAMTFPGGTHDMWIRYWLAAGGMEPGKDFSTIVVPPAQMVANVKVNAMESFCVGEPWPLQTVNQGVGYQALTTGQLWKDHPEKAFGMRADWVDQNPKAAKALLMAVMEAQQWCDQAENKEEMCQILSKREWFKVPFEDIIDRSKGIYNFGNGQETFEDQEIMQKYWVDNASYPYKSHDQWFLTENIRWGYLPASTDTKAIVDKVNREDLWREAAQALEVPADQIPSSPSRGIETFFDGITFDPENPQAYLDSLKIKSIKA
Assay: isothermal titration calorimetry
Format: binding

Row | SMILES | Kd [nM]
1 | O=[N+]([O-])O [nitrate] | 57 ± 23
2 | O=NO [nitrite] | 230 ± 33
